Results from patent publication US20160100573A1, “QUATERNARY ORGANOSILICON SURFACTANTS, METHODS OF MAKING SAME AND APPLICATIONS CONTAINING THE SAME” (Momentive Performance Materials Inc., priority 2014, published 2016).

Tests used:
[1] = Aqueous surface tension by Wilhelmy Plate method (Kruss Tensiometer); format: physicochemical; details: ~22° C.; for CMC: 0.005M NaCl
Experimental: The aqueous surface tension of the various surfactants was determined by the Wilhelmy Plate method using a sand-blasted platinum blade as the sensor. Measurements were made using a Kruss surface Tensiometer. Surfactant solutions were prepared between 0.00001% and 1 wt % in 0.005M NaCl at ambient temperatures (˜22° C.).

[2] = Spreading of surfactant solutions on polystyrene surface (spread diameter after 30 seconds); format: physicochemical; design: unit not given here
Experimental: Spreading was determined using between 0.1% and 0.4% (actives) surfactant. Solutions were prepared in Milli-Pore water (deionized) where a 10 μl, drop was placed on a polystyrene surface (Petri-dish) and the spread diameter determined after 30 seconds.

[3] = Impact of cosurfactant on spreading of QC-1A on polystyrene surface; format: physicochemical; details: 0.2 wt % QC-1A, 0 wt % cosurfactant
Experimental: Spreading was determined using 0.2% (actives) total surfactant solutions, where a […] was placed on a polystyrene surface and the spread diameter determined after 30 seconds. The ratio of QC-1A to Cosurfactant was varied to determine the potential for synergistic or antagonistic effects from interaction between the two surfactants. The spread results (Actual) for each set were compared to a predicted value (weighted average) based on a linear relationship between QC-1A and the Cosurfactant.

[4] = tested on: Barnyardgrass (Echinochloa crus-galli); assay: Effect of adjuvant on uptake of 14C-glyphosate isopropylamine salt into Barnyardgrass; format: in vivo
Experimental: In one other embodiment herein the quaternary organosilicon surfactant composition of the present invention is such that the foliar uptake of various agricultural chemicals is faster for applications containing the quaternary organosilicon having the general formula (I) than that for equivalent applications containing a tallow amine ethoxylate.
Uptake of ^14C-glyphosate (herbicide) into Barnyardgrass (Echinochloa crus-galli) was determined at 2 and 24 hours after treatment (HAT) according to the method described by Gaskin et al. (Gaskin, R. E.; Stevens, P. J. G. 1992. Pestic. Sci. 38: 185-192.), to establish the impact of surfactant on the speed of uptake. Uptake was determined on adaxial surface of youngest fully expanded leaf; plant at 4 leaf stage, ca 10 cm tall.

[5] = Dispersibility / cloud point of surfactant in glyphosate-isopropyl amine 480 g/L formulation; format: physicochemical; details: for Cloud Point (50 g/L): surfactant at 5% in glyphosate 480 g/L formulation
Experimental: Aqueous glyphosate-isopropyl amine (480 g/L) formulations containing 5% of either Comparative-B or the composition of the present invention were prepared and evaluated for dispersion properties. The formulations were visually observed for clarity at 20-22° C., and if clear to hazy, the cloud point was also measured.
Cloud point was determined by placing 15 mL of formulation in a 20 dram vial containing a digital thermometer, and slowly heating the mixture on a magnetic stirrer/hot plate. The temperature at which the solution became opaque was recorded as the cloud point.

[6] = 1.00E+00 weight % surfactant in 0.005M NaCl
[7] = 1.00E-01 weight % surfactant in 0.005M NaCl
[8] = 1.00E-02 weight % surfactant in 0.005M NaCl
[9] = 1.00E-03 weight % surfactant in 0.005M NaCl
[10] = 1.00E-04 weight % surfactant in 0.005M NaCl
[11] = 1.00E-05 weight % surfactant in 0.005M NaCl
[12] = 3.00E-03 weight % surfactant in 0.005M NaCl
[13] = 0.1 wt % surfactant (actives) in deionized water
[14] = 0.2 wt % surfactant (actives) in deionized water
[15] = 0.4 wt % surfactant (actives) in deionized water

Molecule	CMC [1]	Surface Tension [1, 6]	Surface Tension [1, 7]	Surface Tension [1, 8]	Surface Tension [1, 9]	Surface Tension [1, 10]	Surface Tension [1, 11]	Surface Tension [1, 12]	Spread diameter [2, 13]	Spread diameter [2, 14]	Cloud Point (50 g/L) [5]	Spread diameter [2, 15]	further results
COCCOCCOCCOCCOCCOCCOCCOCCOCCC[Si](C)(C)CC[Si](C)(C)C [Comparative-A, (CH3)3—Si—CH2CH2Si(CH3)2CH2CH2CH2O(CH2CH2O)8CH3]	0.005 wt %	23.7 mN/m	24.4 mN/m	25.4 mN/m	34.8 mN/m	48.7 mN/m	62.4 mN/m	30.1 mN/m	43	54	–	–	–
C[N+](C)(CCCO)CC(O)COCCC[Si](C)(C)CC[Si](C)(C)C (stereo not drawn) [QC-1A]	–	–	–	–	–	–	–	–	–	–	–	–	Spread Diameter (Actual) [3]: 48 mm; Spread Diameter (Predicted) ([3]; weighted average): 48 mm
C[N+](C)(CCCO)CC(O)COCCC[Si](C)(C)CC[Si](C)(C)C (stereo not drawn) [QC-1]	–	–	–	–	–	–	–	–	13	33	>95 °C	47	Glyphosate uptake relative to TAE-2 ([4]; 2 HAT, even at a 4x lower use rate): significantly enhances glyphosate uptake; Uptake % of 14C-glyphosate ([4]; adjuvant 0.05 % w/v, 2 HAT): 40.1 d %; Uptake % of 14C-glyphosate ([4]; adjuvant 0.05 % w/v, 24 HAT): 57.6 be %; Uptake % of 14C-glyphosate ([4]; adjuvant 0.1 % w/v, 2 HAT): 34.8 e %; Uptake % of 14C-glyphosate ([4]; adjuvant 0.1 % w/v, 24 HAT): 56.2 c %; Uptake % of 14C-glyphosate ([4]; adjuvant 0.2 % w/v, 2 HAT): 36.2 de %; Uptake % of 14C-glyphosate ([4]; adjuvant 0.2 % w/v, 24 HAT): 61.6 b %
C[N+](C)(CC(O)CO)CC(O)COCCC[Si](C)(C)CC[Si](C)(C)C (stereo not drawn) [QC-2]	–	–	–	–	–	–	–	–	10	23	>95 °C	40	–
CCCC[N+](C)(C)CC(O)COCCC[Si](C)(C)CC[Si](C)(C)C (stereo not drawn) [QC-3]	–	–	–	–	–	–	–	–	14	23	Hazy at 20 °C	36	–
C[N+](C)(CCCO)CC(O)COCCC[Si](C)(O[Si](C)(C)C)O[Si](C)(C)C (stereo not drawn) [TSQ-1]	0.009 wt %	19.9 mN/m	20.2 mN/m	22.3 mN/m	38.3 mN/m	55.6 mN/m	66.7 mN/m	28.7 mN/m	15	30	–	–	–
(CH3)3—Si—O—Si(CH3)(Z)—OS i(CH3)3 Where Z=—CH2CH2CH2O(CH2CH2O)8CH3 [Comparative-B]	0.01 wt %	20.6 mN/m	20.7 mN/m	21.5 mN/m	34.2 mN/m	45.1 mN/m	52.9 mN/m	27.0 mN/m	–	–	Cloudy at 20° C.^a.	–	Dispersibility in the glyphosate formulation (visual) ([5]; 5% surfactant in glyphosate-isopropyl amine 480 g/L, 20-22° C.): insoluble in the glyphosate formulation
